{
  "source": "patent US20080119521A1",
  "about": "“Butyrlcholinesterase Selective Inhibitors” (priority 2004, published 2008)",
  "key": {"[1]": {"tested_on": "human neuroblastoma cell line SH-SY5Y", "experiment": "Toxicity measurement, LDH release cytotoxicity", "assay_type": "cell-based", "settings": "SH-SY5Y cells, 24 hours exposure", "experimental": "The cytotoxicity effect of the molecules was tested in the human neuroblastoma cell line SH-SY5Y. These cells were cultured in 96-well plates in a 1:1 mixture of Ham's F12 nutrients and essential medium (MEM), supplemented with 10% fetal bovine serum and 1% penicillin/streptomycin, and grown in a 5% CO2 humidified incubator at 37° C.\nThe cells were plated at 10^4 cells for each well, at least, 48 hours before the toxicity measure. Cells were exposed for 24 hours to the compounds at different concentrations (from 10^−5 to 10^−9), quantitative assessment of cell death was made by measurement of the intracellular enzyme lactate dehydrogenase (LDH) (citotoxicity detection kit, Roche). The quantity of LDH was measured and evaluated in a microplate reader Anthos 2010, at 492 and 620 nm. Controls were taken as 100% viability."}, "AChE peripheral site": {"biological_target": "AChE peripheral site (Homo sapiens, UniProt P22303)", "sequence (P22303 32-614)": "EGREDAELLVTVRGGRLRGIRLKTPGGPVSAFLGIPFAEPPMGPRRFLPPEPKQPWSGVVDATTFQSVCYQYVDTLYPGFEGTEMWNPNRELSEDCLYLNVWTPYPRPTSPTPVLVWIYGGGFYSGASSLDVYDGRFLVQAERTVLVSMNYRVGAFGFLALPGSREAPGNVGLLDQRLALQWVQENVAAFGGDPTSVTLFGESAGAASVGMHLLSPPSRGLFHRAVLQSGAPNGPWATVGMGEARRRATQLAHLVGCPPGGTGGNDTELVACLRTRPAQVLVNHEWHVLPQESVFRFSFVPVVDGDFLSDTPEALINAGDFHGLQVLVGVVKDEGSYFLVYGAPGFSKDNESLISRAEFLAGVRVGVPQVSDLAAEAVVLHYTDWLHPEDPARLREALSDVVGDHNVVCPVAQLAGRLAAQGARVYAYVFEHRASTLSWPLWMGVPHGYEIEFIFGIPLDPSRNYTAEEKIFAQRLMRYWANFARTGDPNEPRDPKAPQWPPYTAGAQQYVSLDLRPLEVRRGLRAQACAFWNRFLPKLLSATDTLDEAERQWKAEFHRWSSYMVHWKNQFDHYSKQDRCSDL", "experiment": "Propidium competition, fluorescence", "assay_type": "binding", "settings": "5 μM AChE incubated at least 6 hours, 20 μM propidium iodide, 1 mM Tris/HCl pH 8.0", "experimental": "Fluorescence was measured in a Fluostar optima plate reader (BMG). Measurements were carried out in 100 μl solution volume, in 96-well plates. The buffer used was 1 mM Tris/HCl, pH 8.0. 5 μM AchE was incubated, at least 6 hours, with the molecules at different concentrations. 20 μM propidium iodide was added 10 min before fluorescence measurement. The excitation wavelength was 485 nm, and that of emission, 620 nm."}, "[2]": {"biological_target": "T1, AChE from bovine erythrocytes (Bos taurus, UniProt P23795)", "T1 construct": "0.2 unit/ml AChE (Sigma Chemical Co. from bovine erythrocytes); purchased Sigma Chemical Co; host or cells: bovine erythrocytes", "T1 sequence (P23795 31-614 isoform P23795-2 limits assumed)": "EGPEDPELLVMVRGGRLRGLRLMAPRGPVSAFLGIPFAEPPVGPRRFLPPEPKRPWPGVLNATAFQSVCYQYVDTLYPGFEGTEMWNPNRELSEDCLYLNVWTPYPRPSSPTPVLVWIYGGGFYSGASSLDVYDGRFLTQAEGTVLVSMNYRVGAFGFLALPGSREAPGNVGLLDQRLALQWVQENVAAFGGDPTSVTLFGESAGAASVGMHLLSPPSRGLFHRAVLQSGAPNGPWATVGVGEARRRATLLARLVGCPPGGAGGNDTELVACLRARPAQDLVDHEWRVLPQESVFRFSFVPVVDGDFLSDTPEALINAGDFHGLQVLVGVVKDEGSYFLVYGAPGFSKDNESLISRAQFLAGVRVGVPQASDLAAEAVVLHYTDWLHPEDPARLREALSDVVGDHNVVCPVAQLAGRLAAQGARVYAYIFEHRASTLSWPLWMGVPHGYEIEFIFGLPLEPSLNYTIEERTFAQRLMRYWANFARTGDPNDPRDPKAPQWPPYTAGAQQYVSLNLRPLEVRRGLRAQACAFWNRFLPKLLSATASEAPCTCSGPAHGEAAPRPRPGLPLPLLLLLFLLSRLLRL", "experiment": "Acetylcholinesterase (AChE) inhibition, Ellman colorimetric method", "assay_type": "biochemical", "experimental": "Acetylcholinesterase (AChE) Inhibition (from Bovine Erythrocytes)\nAChE inhibitory activity was evaluated at 30° C. by the colorimetric method reported by Ellman [Ellman, G. L.; Courtney, K. D.; Andres, B.; Featherstone, R. M. Biochem. Pharmacol. 1961, 7, 88-95]. The assay solution consisted of 0.1 M phosphate buffer pH 8, 0.3 mM 5,5′-dithiobis (2-nitrobenzoic acid) (DTNB, Ellman's reagent), 0.2 unit/ml AChE (Sigma Chemical Co. from bovine erythrocytes), and 0.5 mM acetylthiocholine iodide as the substrate of the enzymatic reaction. The compounds tested were added to the assay solution and pre incubated with the enzyme for 5 min at 30° C. After that period, the substrate was added. The absorbance changes at 405 nm were recorded for 5 min with a microplate reader Digiscan 340T, the reaction rates were compared, and the percent inhibition due to the presence of test compounds was calculated. The reaction rate was calculated with, at least, triplicate measurements, and the percent inhibition due to the presence of test compound was calculated relative to the compound-free control. The compound concentration producing 50% of AChE inhibition (IC50) was determined."}, "BuChE from human serum": {"biological_target": "T2, BuChE from human serum (Homo sapiens, UniProt P06276)", "T2 construct": "0.1 unit/ml BuChE from human serum; from tissue; host or cells: human serum", "T2 sequence (P06276 29-602)": "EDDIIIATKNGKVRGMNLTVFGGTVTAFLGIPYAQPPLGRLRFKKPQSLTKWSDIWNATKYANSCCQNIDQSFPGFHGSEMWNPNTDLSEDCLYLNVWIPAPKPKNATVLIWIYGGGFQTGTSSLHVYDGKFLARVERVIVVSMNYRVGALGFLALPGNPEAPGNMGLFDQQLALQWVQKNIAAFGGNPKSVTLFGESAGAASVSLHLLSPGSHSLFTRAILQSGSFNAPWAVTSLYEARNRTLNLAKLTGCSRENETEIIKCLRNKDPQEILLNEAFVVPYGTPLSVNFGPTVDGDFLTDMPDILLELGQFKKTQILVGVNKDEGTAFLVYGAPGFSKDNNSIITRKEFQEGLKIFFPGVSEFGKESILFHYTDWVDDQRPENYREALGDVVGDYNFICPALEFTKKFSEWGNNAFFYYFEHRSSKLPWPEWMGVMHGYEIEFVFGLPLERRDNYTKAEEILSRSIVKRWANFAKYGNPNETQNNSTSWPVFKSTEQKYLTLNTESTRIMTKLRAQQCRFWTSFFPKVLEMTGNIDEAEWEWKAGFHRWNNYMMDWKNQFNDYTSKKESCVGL", "experiment": "Butyrylcholinesterase (BuChE) inhibition, Ellman colorimetric method", "assay_type": "biochemical", "experimental": "Butyrylcholinesterase (BuChE) Inhibition (from Human Serum)\nBuChE inhibitory activity was evaluated at 30° C. by the colorimetric method reported by Ellman [Ellman, G. L.; Courtney, K. D.; Andres, B.; Featherstone, R. M. Biochem. Pharmacol. 1961, 7, 88-95]. The assay solution consisted of 0.1 unit/ml BuChE from human serum, 0.1 M sodium phosphate buffer pH 8, 0.3 mM 5,5′-dithiobis (2-nitrobenzoic acid) (DTNB, Ellman's reagent), and 0.5 mM butyrylthiocholine iodide as the substrate of the enzymatic reaction. Enzyme activity was determined by measuring the absorbance at 405 nm during 5 minutes with a microplate reader Digiscan 340T. The tested compounds were preincubated with the enzyme for 10 minutes at 30° C. The reaction rate was calculated with, at least, triplicate measurements. The IC50 is defined as the concentration of each compound that reduces a 50% the enzymatic activity with respect to that without inhibitors."}},
  "note": "Like-named read-outs stand apart in the source and are kept apart here.",
  "data": [
    {"smiles": "O=C(CCCc1c[nH]c2ccccc12)NCCC1CCN(Cc2ccccc2)CC1", "note": "[Compound 6, N-[2-(1-Benzyl-piperidin-4-yl)-ethyl]-4-(1H-indol-3-yl)-butyramide]", "values": [
      {"measurement": "Toxicity", "setting": "[1]", "result": ">100", "unit": "µM"},
      {"measurement": "Propidium competition", "setting": "AChE peripheral site", "result": 100, "unit": "µM"},
      {"measurement": "IC50", "setting": "[2]", "result": 300, "unit": "nM"},
      {"measurement": "IC50", "setting": "BuChE from human serum", "result": 5, "unit": "nM"}
    ]},
    {"smiles": "O=C(CCc1c[nH]c2ccccc12)NCCC1CCN(Cc2ccccc2)CC1", "note": "[Compound 5, N-[2-(1-Benzyl-piperidin-4-yl)-ethyl]-3-(1H-indol-3-yl)-propionamide]", "values": [
      {"measurement": "Toxicity", "setting": "[1]", "result": ">100", "unit": "µM"},
      {"measurement": "Propidium competition", "setting": "AChE peripheral site", "result": 100, "unit": "µM"},
      {"measurement": "IC50", "setting": "[2]", "result": 2000, "unit": "nM"},
      {"measurement": "IC50", "setting": "BuChE from human serum", "result": 0.05, "unit": "nM"},
      {"measurement": "selectivity with respect to AChE", "setting": "BuChE from human serum; BuChE versus AChE", "result": "5 orders of magnitude"}
    ]},
    {"smiles": "Cn1cc(CC(=O)NCCC2CCN(Cc3ccccc3)CC2)c2ccccc21", "note": "[Compound 2, N-[2-(1-Benzyl-piperidin-4-yl)-ethyl]-2-(1-methyl-1H-indol-3-yl)-acetamide]", "values": [
      {"measurement": "Toxicity", "setting": "[1]", "result": ">100", "unit": "µM"},
      {"measurement": "Propidium competition", "setting": "AChE peripheral site", "result": 100, "unit": "µM"},
      {"measurement": "IC50", "setting": "[2]", "result": 400, "unit": "nM"},
      {"measurement": "IC50", "setting": "BuChE from human serum", "result": 1, "unit": "nM"}
    ]},
    {"smiles": "O=C(Cc1c[nH]c2ccccc12)NCCC1CCN(Cc2ccccc2)CC1", "note": "[Compound 1, N-[2-(1-Benzyl-piperidin-4-yl)-ethyl]-2-(lH-indol-3-yl)-acetamide]", "values": [
      {"measurement": "Toxicity", "setting": "[1]", "result": ">100", "unit": "µM"},
      {"measurement": "Propidium competition", "setting": "AChE peripheral site", "result": 1, "unit": "µM"},
      {"measurement": "IC50", "setting": "[2]", "result": 200, "unit": "nM"},
      {"measurement": "IC50", "setting": "BuChE from human serum", "result": 0.8, "unit": "nM"}
    ]},
    {"smiles": "O=C(NCCC1CCN(Cc2ccccc2)CC1)OCCc1c[nH]c2ccccc12", "note": "[Compound 7, [2-(1-Benzyl-piperidin-4-yl)-ethyl]-carbamic acid 2-(1H-indol-3-yl)-ethyl ester]", "values": [
      {"measurement": "Toxicity", "setting": "[1]", "result": ">100", "unit": "µM"},
      {"measurement": "IC50", "setting": "[2]; AChE from bovine erythrocytes, 30° C., pH 8, 5 min preincubation, acetylthiocholine iodide substrate, read-out: IC50 AChE", "result": 1000, "unit": "nM"},
      {"measurement": "IC50", "setting": "BuChE from human serum; BuChE from human serum, 30° C., pH 8, 10 min preincubation, butyrylthiocholine iodide substrate, read-out: IC50 BuChE", "result": 30, "unit": "nM"}
    ]},
    {"smiles": "O=C(Cc1c[nH]c2ccc(Br)cc12)NCCC1CCN(Cc2ccccc2)CC1", "note": "[Compound 4, N-[2-(1-Benzyl-piperidin-4-yl)-ethyl]-2-(5-bromo-1H-indol-3-yl)-acetamide]", "values": [
      {"measurement": "Toxicity", "setting": "[1]", "result": ">100", "unit": "µM"},
      {"measurement": "Propidium competition", "setting": "AChE peripheral site", "result": 1, "unit": "µM"},
      {"measurement": "IC50", "setting": "[2]", "result": 250, "unit": "nM"},
      {"measurement": "IC50", "setting": "BuChE from human serum", "result": 0.25, "unit": "nM"}
    ]},
    {"smiles": "Cc1[nH]c2ccccc2c1CC(=O)NCCC1CCN(Cc2ccccc2)CC1", "note": "[Compound 3, N-[2-(1-Benzyl-piperidin-4-yl)-ethyl]-2-(2-methyl-1H-indol-3-yl)-acetamide]", "values": [
      {"measurement": "Toxicity", "setting": "[1]", "result": ">100", "unit": "µM"},
      {"measurement": "Propidium competition", "setting": "AChE peripheral site", "result": 100, "unit": "µM"},
      {"measurement": "IC50", "setting": "[2]", "result": 200, "unit": "nM"},
      {"measurement": "IC50", "setting": "BuChE from human serum", "result": 2, "unit": "nM"}
    ]}
  ]
}
